“Also recorded” adds a separate entry of the source.
Experiments:
DU145 cells [1] = assay: Cell cycle analysis (propidium iodide), DU145; format: cell-based, Human; conditions: for effect on cell cycle distribution (in words): DU145, 48 h at GI50 dose
Experimental: (§1) Cells were harvested after 48 h drug treatments and DNA distribution analysis of cells stained with propidium iodide solution (propidium iodide 25 µg/mL, Na-Citrate 3.4 mM, NaCl 9.65 mM, NP-40 0.03%) was performed by an Epics cytofluorimeter (Beckman Coulter Srl, Milan, Italy).

[2] = pH-metric titration, acid-base behavior (UV-vis, HypSpec); format: physicochemical; conditions: for pKa: aqueous solution diluted from a methanol mother solution, 25.0 °C, ionic strength 0.1 M NaNO3, read-out: pKa (keto-enol moiety)
Experimental: pH-metric titrations were performed in order to assess K3F acidity and predict the most abundant species in physiological condition. […] Overall protonation constants (βHL) were calculated from spectrophotometric data and optimized by means of HypSpec software (Supplementary Table S1). K3F23, K3F24 and K3F33 behaved as weak monoprotic acids, with a pKa value close to 8–8.50 associated to the keto-enol moiety. As for the other two ligands, namely K3F21 and K3F31, the acid-base equilibria were more complex in view of the polyprotic nature of the compounds, and three logβLH values were calculated. Species distribution curves (Supplementary Figure S2) provided reliable prediction of neutral and charged forms as function of pH, and consequently helped to envisage cell penetration and distribution in physiological conditions. […] As for K3F21 and K3F31, they behaved as less weak acids, in fact at pH 7 58% of K3F21 and 65% of K3F31 were found in the mono-dissociated negatively charged form (H2L^−), these percentages increased up to 74% and 86% respectively at pH 7.4. […] This outcome could be attributed to the stabilizing effect of the intramolecular hydrogen bond between the methoxyl and hydroxyl groups on the aromatic ring in the indissociated form of K3F21, which shifts the equilibrium in favor of the neutral species (H3L).
UV-vis spectrophotometric measurements were performed using Jasco V-570 spectrophotometer at 25.0 ± 0.1 °C in the 200–600 nm spectral range employing 1 cm quartz cells. Owing to the poor water solubility of the compounds, a methanol mother solution (5 × 10^−3 M) was diluted in water in order to give 50 µM solutions used for pH-metric titrations. The pH value was varied by adding small amounts of concentrated NaOH or HCl, 25 points in the pH range 3–10. A constant ionic strength of 0.1 M (NaNO3) was maintained in all the experiments. Each titration was performed at least three times. The overall protonation constants (logβLH) were evaluated from spectrophotometric data using the software HypSpec.

PC3 cells [3] = assay: Cell cycle analysis (propidium iodide), PC3; format: cell-based, Human; conditions: for effect on cell cycle distribution (in words): PC3, 48 h at GI50 dose
Experimental: as §1

[4] = Kinetic stability in physiological conditions (UV-vis); format: physicochemical; conditions: after 24 h; PBS 0.01 M, NaCl 0.1M, pH = 7.4, 37 °C in darkness
Experimental: Figure 2 Stability and radical scavenging ability of K3F derivatives. (A) Residual % of K3F compounds vs. time (PBS 0.01 M, NaCl 0.1M, pH = 7.4, 37 °C in darkness). Residual % is calculated as At·100/A0, where At and A0 stand for absorbance at λmax at time t and time zero, respectively. (B) Percentage of inhibition of free DPPH radical ([DPPH^·] = 60 µM) in the presence of K3F compounds at increasing concentrations. Compounds concentration is expressed as molar ratio (compound/DPPH).
[…] 100 μM solutions of the ligands were prepared in 0.1 M Tris-HCl buffer (pH 7.4) with constant ionic strength (0.1 M NaNO3). Spectra were recorded every 30 min. All profiles were linearized by hyperbolic function (Equation (1)), which represents an empirical model that well describes drug decomposition or release. t/f% = at + b(1) where f% is the fraction of residual compound at time t (min) expressed as percentage referred to starting concentration at time zero.

PC3 cells [5] = assay: MTT cell viability assay, PC3; format: cell-based, Human; conditions: for GI50: 48 h treatment, MTT
Experimental: (§2) Human prostate cancer PC3 cells (CRL 1435, ATCC, Manassas, VA, USA) were grown in Ham’s F12 nutrient medium, human prostate cancer DU145 cells (HTB-81, ATCC, Manassas, VA, USA) in RPMI 1640 medium and human colorectal carcinoma HCT116 cells (CCL-247, ATCC, Manassas, VA, USA) in IMDM medium. All media (Biowest, Nuaillé, France) were supplemented with 10% Foetal Bovine Serum (Gibco-Thermo Fisher Scientific, Waltham, MA, USA), L-glutamine, penicillin, and streptomycin (Euroclone, Milan, Italy), and grown at 37 °C in a humidified 5% CO2 atmosphere.
(§3) DMSO was used as control.
(§4) The inhibition of cell proliferation was measured by colorimetric MTT assay and the concentration at which cellular growth is inhibited by 50% (GI50) was determined. Briefly, cells were seeded into 96-well plates at a density of 2000 cells/well. The following day, cells were treated with the indicated compounds and analyzed for cell viability after 48 h. 5 mg/mL thiazolyl blue tetrazolium bromide (Sigma-Aldrich, St. Louis, MO, USA) was added to each well at a final concentration of 0.5 mg/mL and the plates were incubated at 37 °C for 2 h. Medium containing unconverted MTT was removed and 100 µL MTT solvent (4 mM HCl, 0.1% NP-40 in isopropyl alcohol) was added to each well. The plate was gently rotated on an orbital shaker in the dark for 15 min, before the measurements of absorbance at 570 nm. The viability of untreated cells was arbitrarily set at 100%.

DU145 cells [6] = assay: MTT cell viability assay, DU145; format: cell-based, Human; conditions: for GI50: 48 h treatment, MTT
Experimental: as §2, §3, §4

PC3 cells [7] = assay: Western blot of total cellular lysates, PC3; format: cell-based, Human; conditions: PC3, 48 h at GI50 dose
Experimental: (§8) Actin was used as loading control. Whole-cell protein extracts were prepared by resuspending cells into 1X SDS sample buffer (25 mM Tris-HCl pH 6.8, 1.5 mM EDTA, 20% glycerol, 2% SDS, 5% β-mercaptoethanol, 0.0025% Bromophenol blue). Equivalent amounts of cellular extracts were resolved by SDS-PAGE, electrotransferred to PVDF membrane (GE Healthcare Italia, Milan, Italy) and immunoblotted with the following primary antibodies: anti-phospo-H2AX (sc-101696), anti-p53 (DO1) (sc-126), anti-actin ([MUT]) (sc-1616) and anti-PARP (sc-8007) antibody from Santa Cruz Biotecnology, Inc, Dallas, TX, USA.; phospho-specific AKT antibody S473 (#9018) and T308 (#9275), Akt antibody (#9272 and #2967), phospho-specific ERK1/2 antibody T202/Y204 (#4370), ERK1/2 antibody (#4669), phospho-specific p38 MAPK antibody T180/Y182 (#9211), and p38 antibody (#9212) were purchased from Cell Signaling Technologies, Danvers, MA, USA. Membranes were blotted and scanned with Bio-Rad ChemiDocTM Touch Imaging System (Bio-Rad, Hercules, CA, USA), using chemiluminescent detection reagents from Cyanagen, Bologna, Italy (Westar ηC and Supernova HRP substrates for Western blotting).

DU145 cells [8] = assay: Cell migration (wound) assay, DU145; format: cell-based, Human; conditions: DU145, GI50 dose, 16 h
Experimental: (§5) 4 × 10^5 prostate cancer cells were plated in a 12-well plate. Approximately 24 h later, when the cells were 100% confluent, the monolayer was scratched using a 200 µL pipette tip. […] Three biological replicates were performed. Three random pictures were taken for each treated well per experiment and the areas of the wounds measured using ImageJ software. The percentage of wound recovery was then calculated using the formula: (final area-initial area)/initial area × 100%.

PC3 cells [9] = assay: Cell migration (wound) assay, PC3; format: cell-based, Human; conditions: PC3, GI50 dose, 40 h
Experimental: as §5

PC3 cells [10] = assay: RT-qPCR gene transcription, PC3; format: cell-based, Human; conditions: PC3, 48 h at GI50 dose
Experimental: (§6) Data are presented as relative transcript levels, normalized with RPL21 housekeeping gene, with DMSO levels arbitrarily set at 1.
(§7) RNA was extracted from cells using RNeasy kit (Qiagen, Venlo, The Netherlands) and reversed transcribed with a Moloney murine leukemia virus reverse transcriptase (Promega, Madison, WI, USA). Quantitative real-time PCRs were performed using SsoAdvanced Universal SYBR Green Supermix (Bio-Rad, Hercules, CA, USA) on a Bio-Rad CFX Connect™ real-time PCR detection system. Primer sequences are available upon request. The housekeeping gene Rpl21 was used as a loading control. The relative fold change enrichments of real-time PCR samples were calculated with the formula 2^−(ΔΔCt), where −(ΔΔCt) = −[(Ct target − Ct Rpl21)treated − (Ct target − Ct Rpl21)DMSO].

DU145 cells [11] = assay: Western blot of total cellular lysates, DU145; format: cell-based, Human; conditions: DU145, 48 h at GI50 dose
Experimental: as §8

DU145 cells [12] = assay: RT-qPCR gene transcription, DU145; format: cell-based, Human; conditions: DU145, 48 h at GI50 dose
Experimental: as §6, §7

DU145 cells [13] = assay: K3F21/docetaxel co-administration, MTT and CompuSyn, DU145; format: cell-based, Human; conditions: DU145, DTX 20nM co-administered with K3F21, 48 h
Experimental: as §4
The ability of K3F21 and docetaxel to act synergistically with regard to growth inhibition was determined using CompuSyn software (ComboSyn, Inc., freely available at http://www.combosyn.com). Combination index (CI) and drug reduction index (DRI) were calculated for each concentration of drugs mixture, as indicated in the text. CI <1, =1 or >1 indicates synergism, additive effect, or antagonism, respectively. DRI >1 or <1 indicates favorable or not favorable dose-reduction.

[14] = Antioxidant activity (DPPH assay); conditions: [DPPH] = 60 µM, methanol, 120 min; read-out: IC50, DPPH radical scavenging
Experimental: The antioxidant activity of the compounds was evaluated in terms of hydrogen donating or radical scavenging ability, using the stable DPPH radical (1,1-diphenyl-2-picrylhydrazyl radical). A variable amount (15, 30, 45, 75, 105, and 150 µL) of a methanol solution (1.2 mM) of each compound was placed in a cuvette, and 3 mL of a 60 µM methanol solution of DPPH was added. Absorbance measurements were initiated immediately. The decrease in absorbance at 517 nm was monitored every minute up to 5′, then every 5′ up to 30′ and every 30′ until reaction reaches completion and absorbance stabilizes attaining a plateau after 120′. Methanol was used to zero the spectrophotometer. The absorbance of the DPPH radical without K3F compound, i.e., the control, was measured daily, and concentration was calculated applying Equation (2) (2) [DPPH^·]=A−1.006/10970
The percentage of inhibition (%In) of the DPPH radical by each sample was calculated according to the formula (3) %In=A0−At/A0×100 where A0 represents the absorbance of the control (DPPH radical) at time 0, while At refers to the absorbance of the mixture DPPH/antioxidant at time t (120 min). Values of absorbance were corrected taking into account volume dilution and all determinations were performed in triplicate.

Molecule: 2-((4Z,6E)-4-cinnamoyl-5-hydroxy-7-phenylhepta-4,6-dien-1-yl)isoindoline-1,3-dione [K3F33]
- effect on cell cycle distribution (in words) (DU145 cells [1]): ability to arrest cell cycle progression
- prevailing species ([2]; pH 7): neutral one (HL)
- effect on cell cycle distribution (in words) (PC3 cells [3]): doubled the percentage of G2/M cells; also recorded: significantly increases SubG1 events
- residual percentage [4]: ~60%
- GI50 (PC3 cells [5]): 21.8 µM
- GI50 (DU145 cells [6]): 23.3 µM

Molecule: COc1cc(C=CC(=O)CC(=O)C=Cc2ccc(O)c(OC)c2)ccc1O [Curcumin, 1,7-bis [4-hydroxy-3-methoxyphenyl]-1,6-heptadiene-3,5-Dione, reference compound]
- DU145 % CELLS SubG1 (DU145 cells [1]; 48 h at GI50 concentration): 5%
- effect on cell cycle distribution (in words) (DU145 cells [1]): mainly acts as a cytotoxic drug
- ERK1/2 phosphorylation (PC3 cells [7]): increased
- phosphorylation of AKT in Ser473 and Thr308 (PC3 cells [7]): inhibited
- γH2AX expression (marker of DNA damage) (PC3 cells [7]): increased
- PC3 % CELLS G2/M (PC3 cells [3]; 48 h at GI50 concentration): 37%
- effect on cell cycle distribution (in words) (PC3 cells [3]): significantly increases SubG1 events
- cell migration (wound recovery) (DU145 cells [8]): inhibitory effects on the migratory capacity
- cell migration (wound recovery) (PC3 cells [9]): inhibitory effects on the migratory capacity
- GI50 (PC3 cells [5]; Homo sapiens, PC-3, 48 h): 21 µM
- Noxa transcription (PC3 cells [10]): induced
- transcription of CDK inhibitors p21 and p27 (PC3 cells [10]): increased
- ERK1/2 phosphorylation (DU145 cells [11]): increased
- phospho-p38 expression (DU145 cells [11]): no changes were observed
- γH2AX expression (marker of DNA damage) (DU145 cells [11]): increased γH2AX in PC3 only
- GI50 (DU145 cells [6]; Homo sapiens, DU-145): 17.3 µM
- Noxa transcription (DU145 cells [12]): induced

Molecule: CC(=O)O[C@@]12CO[C@@H]1C[C@H](O)[C@@]1(C)C(=O)[C@H](O)C3=C(C)[C@@H](OC(=O)[C@H](O)[C@@H](NC(=O)OC(C)(C)C)c4ccccc4)C[C@@](O)([C@@H](OC(=O)c4ccccc4)[C@H]21)C3(C)C [Docetaxel, reference compound]
- effect on cell cycle distribution (in words) (DU145 cells [1]): high cytotoxic effect associated to a robust increase in SubG1 events
- effect on cell cycle distribution (in words) (PC3 cells [3]): high cytotoxic effect associated to a robust increase in SubG1 events
- IC50 (PC3 cells [5]; Homo sapiens, PC-3, PC3, MTT assay): 0.03 µM
- DTX drug reduction index (DRI) (DU145 cells [13]): 2.9
- IC50 (DU145 cells [6]; Homo sapiens, DU-145, DU145, MTT assay): 0.017 µM

Molecule: COc1cccc(/C=C/C(=O)C(CCCN2C(=O)c3ccccc3C2=O)C(=O)/C=C/c2cccc(OC)c2)c1 [K3F23]
- effect on cell cycle distribution (in words) (DU145 cells [1]): both arrested the G2/M progression and induced cell death
- pKa [2]: 8 to 8.5
- prevailing species ([2]; pH 7): neutral one (HL)
- effect on cell cycle distribution (in words) (PC3 cells [3]): doubled the percentage of G2/M cells
- GI50 (PC3 cells [5]; Homo sapiens, PC-3, 48 h): 12.4 µM
- GI50 (DU145 cells [6]; Homo sapiens, DU-145): 12.5 µM

Molecule: COc1cc(/C=C/C(=O)C(CCCN2C(=O)c3ccccc3C2=O)C(=O)/C=C/c2ccc(OC(C)=O)c(OC)c2)ccc1OC(C)=O [K3F24]
- effect on cell cycle distribution (in words) (DU145 cells [1]): ability to arrest cell cycle progression
- pKa [2]: 8 to 8.5
- prevailing species ([2]; pH 7): neutral one (HL)
- effect on cell cycle distribution (in words) (PC3 cells [3]): doubled the percentage of G2/M cells
- GI50 (PC3 cells [5]; Homo sapiens, PC-3, 48 h): 16.7 µM
- GI50 (DU145 cells [6]; Homo sapiens, DU-145): 13.2 µM

Molecule: O=C(/C=C/c1ccc(O)cc1)C(CCCN1C(=O)c2ccccc2C1=O)C(=O)/C=C/c1ccc(O)cc1 [K3F31]
- mono-dissociated negatively charged form (H2L−) ([2]; pH 7): 65%
- mono-dissociated negatively charged form (H2L−) ([2]; pH 7.4): 86%
- IC50 [14]: 120 µM

From article PMC6337497 (International Journal of Molecular Sciences, 2018)
